Experimental data reported in US11191820B2, “Method for inducing early T memory response with short peptides anti-tumor vaccine” (OSE IMMUNOTHERAPEUTICS, priority 2015, dated 2021).
Like-named read-outs stand apart in the source and are kept apart here. Marks after values point to notes of the source that are not given here.

What was measured:
[1] = tested on: advanced NSCLC; conditions: cited from earlier work
[2] = tested on: central memory T cells; experiment: Cultured IFN-γ ELISPOT after 10-day in vitro stimulation of PBMC, phase 1/2 colon cancer trial of OSE-2101; format: in vivo, human; parameters: key to net SFC of vaccine positive CTL responses: —, indicates SFC response did not meet criteria and vaccine response was negative; conditions: for Mean SFC: 10 colon patients
How it was run: (§1)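 Patient PBMC (pre-treatment, Week 9, Week 18, after s.c. dosing every 3 weeks) were stimulated 10 days with 10 μg/ml of each epitope plus rIL-2 10 U/ml on days 1, 4 and 7. Cells were then tested 20 h with irradiated autologous PBMC and 10 μg/ml vaccine or wild-type peptide. Net SFC per 5×10^4 cells, irrelevant HBV peptide subtracted.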

[3] = tested on: central memory T cells; experiment: Cultured IFN-γ ELISPOT after 10-day in vitro stimulation of PBMC, phase 1/2 NSCLC trial of OSE-2101; format: in vivo, human; parameters: key to net SFC of vaccine positive CTL responses: —, indicates SFC response did not meet criteria and vaccine response was negative; conditions: for Mean SFC / No. Positive Responses: 6 NSCLC patients
How it was run: as §1

[4] = tested on: central memory T cells; experiment: Central memory T cell cultured ELISPOT, phase 2 trial in advanced NSCLC; format: in vivo, human
How it was run: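 Patient PBMC were pre-stimulated for 10 days with 10 μg/ml peptide plus rIL2 (10 U/ml, days 1, 4, 7), then replated at 5×10^4/well with irradiated autologous PBMC and 10 μg/ml peptide, and SFC were counted. A response was positive if >5 SFC above, and > mean+2 SD of, the irrelevant HBV epitope, and twofold the pre-vaccination response plus 2 SD.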

C#Cc1cccc(Nc2ncnc3cc(OCCOC)c(OCCOC)cc23)c1 [Erlotinib]
Progression-Free Survival (PFS) ([1]; advanced NSCLC after at least first line failure (Shepherd 2005)): 2.2 months

Nc1nc2[nH]cc(CCc3ccc(C(=O)N[C@@H](CCC(=O)O)C(=O)O)cc3)c2c(=O)[nH]1 [pemetrexed]
median PFS ([1]; phase 3, second line NSCLC (Bareschino 2011)): 2.9 months

nivolumab
median PFS ([1]; phase 3 study in squamous NSCLC (Brahmer 2015)): 3.5 months

YLSGADLNL [CEA.605D6 A]
Mean SFC ([2]; Week 9): 84.2 SFC per 50,000 cells
Mean SFC ([2]; Week 18): 283.3 SFC per 50,000 cells
net SFC of vaccine positive CTL responses ([2]; colon patient 551, Week 9): —
net SFC of vaccine positive CTL responses ([2]; colon patient 551, Week 18): —
net SFC of vaccine positive CTL responses ([2]; colon patient 601, Week 9): 88.3 SFC per 50,000 cells
net SFC of vaccine positive CTL responses ([2]; colon patient 601, Week 18): —
net SFC of vaccine positive CTL responses ([2]; colon patient 602, Week 9): —
net SFC of vaccine positive CTL responses ([2]; colon patient 602, Week 18): —
net SFC of vaccine positive CTL responses ([2]; colon patient 603, Week 9): 114.7 SFC per 50,000 cells
net SFC of vaccine positive CTL responses ([2]; colon patient 603, Week 18): —
net SFC of vaccine positive CTL responses ([2]; colon patient 604, Week 9): 70.0 SFC per 50,000 cells
net SFC of vaccine positive CTL responses ([2]; colon patient 604, Week 18): 413.3 SFC per 50,000 cells
net SFC of vaccine positive CTL responses ([2]; colon patient 605, Week 9): —
net SFC of vaccine positive CTL responses ([2]; colon patient 605, Week 18): —
net SFC of vaccine positive CTL responses ([2]; colon patient 606, Week 9): —
net SFC of vaccine positive CTL responses ([2]; colon patient 606, Week 18): —
net SFC of vaccine positive CTL responses ([2]; colon patient 607, Week 9): 72.7 SFC per 50,000 cells
net SFC of vaccine positive CTL responses ([2]; colon patient 607, Week 18): 414.7 SFC per 50,000 cells
net SFC of vaccine positive CTL responses ([2]; colon patient 608, Week 9): —
net SFC of vaccine positive CTL responses ([2]; colon patient 608, Week 18): —
net SFC of vaccine positive CTL responses ([2]; colon patient 609, Week 9): 75.3 SFC per 50,000 cells
net SFC of vaccine positive CTL responses ([2]; colon patient 609, Week 18): 22.0 SFC per 50,000 cells
Mean SFC ([3]; Week 9): 20.7 SFC per 50,000 cells
No. Positive Responses ([3]; Week 9): 1
Mean SFC ([3]; Week 18): 137.5 SFC per 50,000 cells
No. Positive Responses ([3]; Week 18): 2
net SFC of vaccine positive CTL responses ([3]; NSCLC patient 201, Week 9): —
net SFC of vaccine positive CTL responses ([3]; NSCLC patient 201, Week 18): —
net SFC of vaccine positive CTL responses ([3]; NSCLC patient 502, Week 9): —
net SFC of vaccine positive CTL responses ([3]; NSCLC patient 502, Week 18): —
net SFC of vaccine positive CTL responses ([3]; NSCLC patient 504, Week 9): 20.7 SFC per 50,000 cells
net SFC of vaccine positive CTL responses ([3]; NSCLC patient 504, Week 18): 214.3 SFC per 50,000 cells
net SFC of vaccine positive CTL responses ([3]; NSCLC patient 505, Week 9): —
net SFC of vaccine positive CTL responses ([3]; NSCLC patient 505, Week 18): 60.7 SFC per 50,000 cells
net SFC of vaccine positive CTL responses ([3]; NSCLC patient 532, Week 9): —
net SFC of vaccine positive CTL responses ([3]; NSCLC patient 532, Week 18): —
net SFC of vaccine positive CTL responses ([3]; NSCLC patient 651, Week 9): —
net SFC of vaccine positive CTL responses ([3]; NSCLC patient 651, Week 18): —
% of patients with positive CTL/central memory T cell response ([4]; phase 2, month 9): 14%
patients with positive CTL/central memory T cell response / patients tested ([4]; phase 2, month 9): 1/7
% of patients with positive CTL/central memory T cell response ([4]; phase 2, month 12): 25%
patients with positive CTL/central memory T cell response / patients tested ([4]; phase 2, month 12): 1/4
% of patients with positive CTL/central memory T cell response ([4]; phase 2, week 9): 27%
patients with positive CTL/central memory T cell response / patients tested ([4]; phase 2, week 9): 9/33
% of patients with positive CTL/central memory T cell response ([4]; phase 2, week 18): 31%
patients with positive CTL/central memory T cell response / patients tested ([4]; phase 2, week 18): 10/32
% of patients with positive CTL/central memory T cell response ([4]; phase 2, week 30): 35%
patients with positive CTL/central memory T cell response / patients tested ([4]; phase 2, week 30): 8/23

LLTFWNPPV [CEA.24V9 A]
Mean SFC ([2]; Week 9): 86.5 SFC per 50,000 cells
Mean SFC ([2]; Week 18): 172.0 SFC per 50,000 cells
net SFC of vaccine positive CTL responses ([2]; colon patient 551, Week 9): 42.7^d) SFC per 50,000 cells
net SFC of vaccine positive CTL responses ([2]; colon patient 551, Week 18): —
net SFC of vaccine positive CTL responses ([2]; colon patient 601, Week 9): 118.0 SFC per 50,000 cells
net SFC of vaccine positive CTL responses ([2]; colon patient 601, Week 18): 96.0 SFC per 50,000 cells
net SFC of vaccine positive CTL responses ([2]; colon patient 602, Week 9): —
net SFC of vaccine positive CTL responses ([2]; colon patient 602, Week 18): —
net SFC of vaccine positive CTL responses ([2]; colon patient 603, Week 9): 63.0 SFC per 50,000 cells
net SFC of vaccine positive CTL responses ([2]; colon patient 603, Week 18): 20.7 SFC per 50,000 cells
net SFC of vaccine positive CTL responses ([2]; colon patient 604, Week 9): 55.3 SFC per 50,000 cells
net SFC of vaccine positive CTL responses ([2]; colon patient 604, Week 18): 187.0 SFC per 50,000 cells
net SFC of vaccine positive CTL responses ([2]; colon patient 605, Week 9): 43.7 SFC per 50,000 cells
net SFC of vaccine positive CTL responses ([2]; colon patient 605, Week 18): 109.7 SFC per 50,000 cells
net SFC of vaccine positive CTL responses ([2]; colon patient 606, Week 9): —
net SFC of vaccine positive CTL responses ([2]; colon patient 606, Week 18): —
net SFC of vaccine positive CTL responses ([2]; colon patient 607, Week 9): 196.7 SFC per 50,000 cells
net SFC of vaccine positive CTL responses ([2]; colon patient 607, Week 18): 586.7 SFC per 50,000 cells
net SFC of vaccine positive CTL responses ([2]; colon patient 608, Week 9): —
net SFC of vaccine positive CTL responses ([2]; colon patient 608, Week 18): —
net SFC of vaccine positive CTL responses ([2]; colon patient 609, Week 9): —
net SFC of vaccine positive CTL responses ([2]; colon patient 609, Week 18): 31.7 SFC per 50,000 cells
No. Positive Responses ([3]; Week 9): 0
Mean SFC ([3]; Week 18): 34.3 SFC per 50,000 cells
No. Positive Responses ([3]; Week 18): 2
net SFC of vaccine positive CTL responses ([3]; NSCLC patient 201, Week 9): —
net SFC of vaccine positive CTL responses ([3]; NSCLC patient 201, Week 18): —
net SFC of vaccine positive CTL responses ([3]; NSCLC patient 502, Week 9): —
net SFC of vaccine positive CTL responses ([3]; NSCLC patient 502, Week 18): —
net SFC of vaccine positive CTL responses ([3]; NSCLC patient 504, Week 9): —
net SFC of vaccine positive CTL responses ([3]; NSCLC patient 504, Week 18): 25.3^d) SFC per 50,000 cells
net SFC of vaccine positive CTL responses ([3]; NSCLC patient 505, Week 9): —
net SFC of vaccine positive CTL responses ([3]; NSCLC patient 505, Week 18): —
net SFC of vaccine positive CTL responses ([3]; NSCLC patient 532, Week 9): —
net SFC of vaccine positive CTL responses ([3]; NSCLC patient 532, Week 18): 43.3 SFC per 50,000 cells
net SFC of vaccine positive CTL responses ([3]; NSCLC patient 651, Week 9): —
net SFC of vaccine positive CTL responses ([3]; NSCLC patient 651, Week 18): —
% of patients with positive CTL/central memory T cell response ([4]; phase 2, month 9): 57%
patients with positive CTL/central memory T cell response / patients tested ([4]; phase 2, month 9): 4/7
% of patients with positive CTL/central memory T cell response ([4]; phase 2, month 12): 50%
patients with positive CTL/central memory T cell response / patients tested ([4]; phase 2, month 12): 2/4
% of patients with positive CTL/central memory T cell response ([4]; phase 2, week 9): 39%
patients with positive CTL/central memory T cell response / patients tested ([4]; phase 2, week 9): 13/33
% of patients with positive CTL/central memory T cell response ([4]; phase 2, week 18): 31%
patients with positive CTL/central memory T cell response / patients tested ([4]; phase 2, week 18): 10/32
% of patients with positive CTL/central memory T cell response ([4]; phase 2, week 30): 28%
patients with positive CTL/central memory T cell response / patients tested ([4]; phase 2, week 30): 9/23
